Measurements published in patent US10329289B2, “6,7-dihydro-5H-pyrrolo[3,4-B]pyridin-5-one allosteric modulators of the M4 muscarinic acetylcholine receptor” (Merck Sharp & Dohme Corp., priority 2015, dated 2019).

target: T1, human M4 muscarinic acetylcholine receptor (Homo sapiens, UniProt P08173); test: human FLIPR-based M4 PAM assay (Ca2+ mobilization, CHO-K1 cells with human M4 receptor and Gαqi5); assay type: cell-based; settings: acetylcholine at 20% of maximum response, read-out: M4 PAM IP
T1 construct: expressed in transfected cells; host or cells: CHO-K1
T1 sequence (P08173 1-479): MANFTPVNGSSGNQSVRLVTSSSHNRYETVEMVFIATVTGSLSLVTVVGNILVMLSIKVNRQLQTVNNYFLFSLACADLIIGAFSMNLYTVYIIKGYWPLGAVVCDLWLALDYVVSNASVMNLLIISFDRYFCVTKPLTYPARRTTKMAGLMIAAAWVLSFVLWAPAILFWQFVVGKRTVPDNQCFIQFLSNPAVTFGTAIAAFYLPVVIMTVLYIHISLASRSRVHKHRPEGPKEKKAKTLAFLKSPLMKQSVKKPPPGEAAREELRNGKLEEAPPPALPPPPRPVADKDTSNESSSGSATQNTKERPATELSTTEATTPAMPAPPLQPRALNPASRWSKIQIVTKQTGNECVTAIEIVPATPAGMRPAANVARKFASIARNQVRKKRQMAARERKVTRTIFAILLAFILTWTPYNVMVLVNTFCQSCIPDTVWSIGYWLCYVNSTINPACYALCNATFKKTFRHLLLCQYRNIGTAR
In short: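 Calcium-mobilization (FLIPR) readout in dye-loaded CHO-K1 cells co-expressing human M4 receptor and Gαqi5. Potentiation measured against acetylcholine at a concentration giving 20% of maximal response, with an optional 70% addition; the reported value is the curve inflection point from a 4-parameter logistic fit.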

Question: `Cc1cc2c(nc1N1CCC(Oc3ccc(OCC(F)(F)F)nc3)CC1)CNC2=O` [Example 120, 3-methyl-2-(4-((6-(2,2,2-trifluoroethoxy)pyridin-3-yl)oxy)piperidin-1-yl)-6,7-dihydro-5H-pyrrolo[3,4-b]pyridin-5-one] was tested. Which EC50 did it give?
Answer: Its EC50 is 256 nM.

Question: For `Cc1cc2c(nc1N1CCC(Oc3ccc4c(c3)CO[C@@H]4C)CC1)CNC2=O` [Example 199A, (R)-3-methyl-2-(4-((1-methyl-1,3-dihydro-2-benzofuran-5-yl)oxy)piperidin-1-yl)-6,7-dihydro-5H-pyrrolo[3,4-b]pyridin-5-one], which EC50 is on record?
Answer: Its EC50 is 60 nM.

Question: `COc1ccc(OC2CCN(c3nc4c(cc3C)C(=O)N([C@@H](C)CO)C4)CC2)cn1` (single isomer, unassigned) [Example 264C] was tested. Which EC50 did it give?
Answer: The EC50 was 40 nM.

Question: `COc1ccc(O[C@@H]2CCN(c3nc4c(cc3C)C(=O)NC4)C[C@@H]2C)cn1` [Example 29A, 2-((3S,4R)-4-((6-methoxypyridin-3-yl)oxy)-3-methylpiperidin-1-yl)-3-methyl-6,7-dihydro-5H-pyrrolo[3,4-b]pyridin-5-one] was tested. Which EC50 did it give?
Answer: The EC50 was 63 nM.

Question: `Cc1cc2c(nc1N1CCC(Oc3ccc4c(c3)CNC4)CC1)CNC2=O` [Example 147, 2-(4-(isoindolin-5-yloxy)piperidin-1-yl)-3-methyl-6,7-dihydro-5H-pyrrolo[3,4-b]pyridin-5-one] was tested. Which EC50 did it give?
Answer: The EC50 was 313 nM.

Question: Which EC50 does the source give for `Cc1cc2c(nc1N1CCC(Oc3ccc(C(F)(F)F)nc3)CC1)CNC2=O` [Example 88, 3-methyl-2-(4-((6-(trifluoromethyl)pyridin-3-yl)oxy)piperidin-1-yl)-6,7-dihydro-5H-pyrrolo[3,4-b]pyridin-5-one] here?
Answer: Its EC50 is 381 nM.

Question: For `Cc1cc2c(nc1N1[C@@H]3CC[C@H]1C[C@@H](Oc1ccc4c(cnn4C)c1)C3)CNC2=O` [Example 100, 3-methyl-2-(endo-3-((1-methyl-1H-indazol-5-yl)oxy)-8-azabicyclo[3.2.1]octan-8-yl)-6,7-dihydro-5H-pyrrolo[3,4-b]pyridin-5-one], which EC50 is on record?
Answer: The EC50 was 1030 nM.

Question: How did the EC50 turn out when `Cc1cc2c(nc1N1CCC(Oc3ccc4c(c3)CCCO4)CC1)CNC2=O` [Example 116, 2-(4-(chroman-6-yloxy)piperidin-1-yl)-3-methyl-6,7-dihydro-5H-pyrrolo[3,4-b]pyridin-5-one] was run?
Answer: Its EC50 is 45 nM.

Question: `Cc1cc2c(nc1N1CC[C@H](Oc3cccnc3)[C@H](F)C1)CNC2=O` (single isomer, unassigned) [Example 165, 2-((3R,4S) or (3S,4R)-3-fluoro-4-(pyridin-3-yloxy)piperidin-1-yl)-3-methyl-6,7-dihydro-5H-pyrrolo[3,4-b]pyridin-5-one] was tested. Which EC50 did it give?
Answer: The EC50 was 467 nM.

Question: `Cc1c(N2CCC(Oc3ccc4c(c3)CCOC4)CC2)nc2c(c1C)C(=O)N(C)[C@@H]2CO` [Example 369, (S)-7-(hydroxymethyl)-2-(4-(isochroman-6-yloxy)piperidin-1-yl)-3,4,6-trimethyl-6,7-dihydro-5H-pyrrolo[3,4-b]pyridin-5-one] was tested. Which EC50 did it give?
Answer: Its EC50 is 57 nM.

Question: How did the EC50 turn out when `COCCOCc1ccc(OC2CCN(c3nc4c(cc3C)C(=O)NC4)CC2)cn1` [Example 204, 2-(4-((6-((2-methoxyethoxy)methyl)pyridin-3-yl)oxy)piperidin-1-yl)-3-methyl-6,7-dihydro-5H-pyrrolo[3,4-b]pyridin-5-one] was run?
Answer: Its EC50 is 1110 nM.

Question: How did the EC50 turn out when `Cc1c(N2CCC(Oc3ccc4c(c3)COCC4)CC2)nc2c(c1C)C(=O)N(CCO)C2` [Example 268B, 6-(2-hydroxyethyl)-2-(4-(isochroman-7-yloxy)piperidin-1-yl)-3,4-dimethyl-6,7-dihydro-5H-pyrrolo[3,4-b]pyridin-5-one] was run?
Answer: Its EC50 is 63 nM.

Question: How did the EC50 turn out when `COc1ccc(OC2CCN(c3nc4c(cc3C)C(=O)NC4O)CC2)cn1` (centres unmarked) [Example 298, 7-Hydroxy-2-(4-((6-methoxypyridin-3-yl)oxy)piperidin-1-yl)-3-methyl-6,7-dihydro-5H-pyrrolo[3,4-b]pyridin-5-one] was run?
Answer: The EC50 was 24 nM.

Question: How did the EC50 turn out when `Cc1cc2c(nc1N1CCC(Oc3ccc4c(c3)CCCN4)CC1)CNC2=O` [Example 22, 3-methyl-2-(4-((1,2,3,4-tetrahydroquinolin-6-yl)oxy)piperidin-1-yl)-6,7-dihydro-5H-pyrrolo[3,4-b]pyridin-5-one] was run?
Answer: Its EC50 is 32 nM.

Question: How did the EC50 turn out when `Cc1cc2c(nc1N1CCC(Oc3cnn(C)c3)CC1)CNC2=O` [Example 139, 3-methyl-2-(4-((1-methyl-1H-pyrazol-4-yl)oxy)piperidin-1-yl)-6,7-dihydro-5H-pyrrolo[3,4-b]pyridin-5-one] was run?
Answer: Its EC50 is 106 nM.

Question: With `Cc1cc2c(nc1N1CCC(Oc3cn[nH]c3)CC1)CNC2=O` [Example 142, 2-(4-((1H-pyrazol-4-yl)oxy)piperidin-1-yl)-3-methyl-6,7-dihydro-5H-pyrrolo[3,4-b]pyridin-5-one] as the compound, how does the EC50 read?
Answer: The EC50 was 270 nM.

Question: For `Cc1cc2c(nc1N1CCC(Oc3ccc4c(c3)CNCC4)CC1)CNC2=O` [Example 146, 3-methyl-2-(4-((1,2,3,4-tetrahydroisoquinolin-7-yl)oxy)piperidin-1-yl)-6,7-dihydro-5H-pyrrolo[3,4-b]pyridin-5-one], which EC50 is on record?
Answer: Its EC50 is 286 nM.

Question: `Cc1cc2c(nc1N1CCC(Oc3ccc(F)c(F)c3)CC1)[C@H](CO)N(C)C2=O` [Example 348, (R)-2-(4-(3,4-difluorophenoxy)piperidin-1-yl)-7-(hydroxymethyl)-3,6-dimethyl-6,7-dihydro-5H-pyrrolo[3,4-b]pyridin-5-one] was tested. Which EC50 did it give?
Answer: Its EC50 is 8170 nM.

Question: For `CCC1(COC2CCN(c3nc4c(cc3C)C(=O)NC4)CC2)CC1` [Example 186, 2-(4-((1-ethylcyclopropyl)meth-oxy)piperidin-1-yl)-3-methyl-6,7-dihydro-5H-pyrrolo[3,4-b]pyridin-5-one], which EC50 is on record?
Answer: The EC50 was 77 nM.

Question: `COCCOc1ccc(OC2CCN(c3nc4c(cc3C)C(=O)NC4)CC2)cn1` [Example 171, 2-(4-((6-(2-methoxyethoxy)pyridin-3-yl)oxy)piperidin-1-yl)-3-methyl-6,7-dihydro-5H-pyrrolo[3,4-b]pyridin-5-one] was tested. Which EC50 did it give?
Answer: Its EC50 is 79 nM.

Question: Which EC50 does the source give for `Cc1cc2c(nc1N1CCC(Oc3ccccc3)CC1)CN(C(C)C)C2=O` [Example 247, 6-isopropyl-3-methyl-2-(4-phenoxypiperidin-1-yl)-6,7-dihydro-5H-pyrrolo[3,4-b]pyridin-5-one] here?
Answer: Its EC50 is 137 nM.

Question: `COCCOCc1ccc(OC2CCN(c3nc4c(cc3C)C(=O)NC4)CC2)cc1` [Example 205, 2-(4-(4-((2-methoxyethoxy)methyl)phenoxy)piperidin-1-yl)-3-methyl-6,7-dihydro-5H-pyrrolo[3,4-b]pyridin-5-one] was tested. Which EC50 did it give?
Answer: Its EC50 is 238 nM.

Question: How did the EC50 turn out when `Cc1cc2c(nc1N1CCC(Oc3ccccn3)CC1)CNC2=O` [Example 131, 3-methyl-2-(4-(pyridin-2-yloxy)piperidin-1-yl)-6,7-dihydro-5H-pyrrolo[3,4-b]pyridin-5-one] was run?
Answer: Its EC50 is 1520 nM.

Question: How did the EC50 turn out when `CCN1Cc2nc(N3CCC(Oc4ccc5c(c4)COC5)CC3)c(C)cc2C1=O` [Example 244A, 2-(4-((1,3-dihydro-2-benzofuran-5-yl)oxy)piperidin-1-yl)-6-ethyl-3-methyl-6,7-dihydro-5H-pyrrolo[3,4-b]pyridin-5-one] was run?
Answer: Its EC50 is 28 nM.

Question: For `CCc1c(C)c(N2CCC(Oc3ccc(OC)nc3)CC2)nc2c1C(=O)NC2` [Example 229A, 4-ethyl-2-(4-((6-methoxypyridin-3-yl)oxy)piperidin-1-yl)-3-methyl-6,7-dihydro-5H-pyrrolo[3,4-b]pyridin-5-one], which EC50 is on record?
Answer: The EC50 was 600 nM.

Question: For `Cc1cc2c(nc1N1CCC(Oc3ccc4[nH]nc(Br)c4c3)CC1)CNC2=O` [Example 315, 2-(4-((3-bromo-1H-indazol-5-yl)oxy)piperidin-1-yl)-3-methyl-6,7-dihydro-5H-pyrrolo[3,4-b]pyridin-5-one], which EC50 is on record?
Answer: The EC50 was 80 nM.

Question: How did the EC50 turn out when `Cc1c(N2CC[C@@H](Oc3ccc4c(cnn4C)c3)[C@@H](F)C2)nc2c(c1C)C(=O)N(CCO)C2` [Example 268E, 2-((3S,4R)-3-fluoro-4-((1-methyl-1H-indazol-5-yl)oxy)piperidin-1-yl)-6-(2-hydroxyethyl)-3,4-dimethyl-6,7-dihydro-5H-pyrrolo[3,4-b]pyridin-5-one] was run?
Answer: Its EC50 is 68 nM.

Question: Which EC50 does the source give for `Cc1cc2c(nc1N1CCC(Oc3cncc(F)c3)CC1)CNC2=O` [Example 103, 2-(4-((5-fluoropyridin-3-yl)oxy)piperidin-1-yl)-3-methyl-6,7-dihydro-5H-pyrrolo[3,4-b]pyridin-5-one] here?
Answer: The EC50 was 138 nM.

Question: Which EC50 does the source give for `Cc1cncc(OC2CCN(c3nc4c(c(C)c3C)C(=O)NC4)CC2)c1` [Example 220A, 3,4-dimethyl-2-(4-((5-methylpyridin-3-yl)oxy)piperidin-1-yl)-6,7-dihydro-5H-pyrrolo[3,4-b]pyridin-5-one] here?
Answer: The EC50 was 83 nM.

Question: How did the EC50 turn out when `Cc1cc2c(nc1N1CCC(Oc3ccc4c(c3)C(=O)NCC4)CC1)CNC2=O` [Example 135, 7-((1-(3-methyl-5-oxo-6,7-dihydro-5H-pyrrolo[3,4-b]pyridin-2-yl)piperidin-4-yl)oxy)-3,4-dihydroisoquinolin-1(2H)-one] was run?
Answer: Its EC50 is 217 nM.

Question: With `Cc1cc2c(nc1N1CC[C@@H](Oc3ccc4c(c3)COC4)[C@H](F)C1)CN(CCO)C2=O` [Example 257, 2-((3R,4R)-4-((1,3-dihydro-2-benzofuran-5-yl)oxy)-3-fluoropiperidin-1-yl)-6-(2-hydroxyethyl)-3-methyl-6,7-dihydro-5H-pyrrolo[3,4-b]pyridin-5-one] as the compound, how does the EC50 read?
Answer: Its EC50 is 84 nM.

Question: Which EC50 does the source give for `COc1ccc(O[C@@H]2CCN(c3nc4c(cc3C)C(=O)N(C)[C@H]4CO)C[C@H]2F)cn1` [Example 281A, (R)-2-((3R,4R)-3-fluoro-4-((6-methoxypyridin-3-yl)oxy)piperidin-1-yl)-7-(hydroxymethyl)-3,6-dimethyl-6,7-dihydro-5H-pyrrolo[3,4-b]pyridin-5-one] here?
Answer: The EC50 was 8060 nM.
